ChEMBL document CHEMBL3046506 (2006)

What was measured:
Pyricularia oryzae [1] = assay: Antifungal activity against wild type Magnaporthe oryzae Hoku-1 in rice seedlings assessed as preventive value of rice blast at 5 ug/ml foliar spray at 26 degC by pot test; format: functional
Pyricularia oryzae [2] = assay: Antifungal activity against wild type Magnaporthe oryzae Hoku-1 in rice seedlings assessed as preventive value of rice blast at 5 ug/ml systemic application at 22 to 30 degC by pot test; format: functional

Row | Structure (SMILES) | Activity (Pyricularia oryzae [1]) | Activity (Pyricularia oryzae [2])
1 | CCC1(C(=O)NCCc2cnc(Cl)s2)C(C)C1(Cl)Cl (stereo not given) | 40% | 40%
2 | CC1C(Cl)(Cl)C1(C)C(=O)NCCc1csc(Cl)c1 (stereo not given) | 40% | 40%
3 | CC1(C)C(C(=O)NCCc2csc(Cl)c2)C1(Cl)Cl (stereo not given) | <40% | <40%
4 | CC1(C)C(Cl)(Cl)C1(C)C(=O)NCCc1csc(Cl)c1 (stereo not given) | 40% | 40%
5 | CC(C)C1(C(=O)NCCc2csc(Cl)c2)CC1(Cl)Cl (stereo not given) | 40% | 40%
6 | CCCC1(C(=O)NCCc2csc(Cl)c2)CC1(Cl)Cl (stereo not given) | <40% | <40%
7 | CC(C)(C)C(C#N)C(=O)NCCc1csc(Cl)c1 (stereo not given) | 40% | 65%
8 | CC(C)(C)C(Cl)C(=O)NCCc1csc(Cl)c1 (stereo not given) | 40% | 40%
9 | CC(C)(C)C(Br)C(=O)NCCc1csc(Cl)c1 (stereo not given) | 40% | 40%
10 | CCC1(C(=O)NCCc2ccc(F)cc2F)C(C)C1(Cl)Cl (stereo not given) | 40% | 40%
11 | CCC1(C(=O)NCCc2ccc(C(F)(F)F)cc2)C(C)C1(Cl)Cl (stereo not given) | 40% | 40%
12 | CCC1(C(=O)NCCc2ccccc2Cl)C(C)C1(Cl)Cl (stereo not given) | 40% | 40%
13 | CCC1(C(=O)NCCc2cccc(Cl)c2)C(C)C1(Cl)Cl (stereo not given) | 40% | 40%
14 | CCC1(C(=O)NCCc2ccc(Cl)cc2Cl)C(C)C1(Cl)Cl (stereo not given) | 40% | 40%
15 | CCC1(C(=O)NCCc2ccc(Cl)c(Cl)c2)C(C)C1(Cl)Cl (stereo not given) | 40% | 40%
16 | CCC1(C(=O)NCCc2ccc(Br)cc2)C(C)C1(Cl)Cl (stereo not given) | <=40% | <40%
17 | CCC1(C(=O)NCCc2ccc(C)cc2)C(C)C1(Cl)Cl (stereo not given) | <40% | <40%
18 | CCC1(C(=O)NCCc2ccsc2)C(C)C1(Cl)Cl (stereo not given) | 40% | <=40%
19 | CCC1(C(=O)NCCc2csc(Cl)c2)C(C)C1(Cl)Cl (stereo not given) | 65% | 65%
20 | CCC1(C(=O)NCCc2cc(Cl)cs2)C(C)C1(Cl)Cl (stereo not given) | 40% | 40%
21 | CCC1(C(=O)NCCc2ccc(Cl)s2)C(C)C1(Cl)Cl (stereo not given) | 40% | 40%
22 | CCC1(C(=O)NCCc2csc(Br)c2)C(C)C1(Cl)Cl (stereo not given) | 40% | <40%
23 | CCC1(C(=O)NCCc2cc(Cl)sc2Cl)C(C)C1(Cl)Cl (stereo not given) | 40% | <40%

Row | Structure (SMILES) | Activity (Pyricularia oryzae [1]) | Activity (Pyricularia oryzae [2])
24 | CCC1(C(=O)NCCc2cc(Cl)c(Cl)s2)C(C)C1(Cl)Cl (stereo not given) | <=40% | 40%
25 | CCC1(C(=O)NC(C)c2cc(Cl)cs2)C(C)C1(Cl)Cl (stereo not given) | <=40% | <=40%
26 | CCC1(C(=O)NC(C)c2ccc(Cl)s2)C(C)C1(Cl)Cl (stereo not given) | <=40% | <=40%
27 | CCC1(C(=O)NC(C)c2csc(Cl)c2)C(C)C1(Cl)Cl (stereo not given) | <=40% | 40%
28 | CCC1(C(=O)NC(C)c2cc(Cl)c(Cl)s2)C(C)C1(Cl)Cl (stereo not given) | 40% | <=40%
29 | CCC1(C(=O)NCCc2csc(Cl)n2)C(C)C1(Cl)Cl (stereo not given) | 40% | 40%
30 | CCC1(C(=O)NC(C)C)C(C)C1(Cl)Cl (stereo not given) | <40% | <40%
31 | CCC(C)NC(=O)C1(CC)C(C)C1(Cl)Cl (stereo not given) | <40% | <40%
32 | CCC1(C(=O)NCCC(F)(F)F)C(C)C1(Cl)Cl (stereo not given) | <40% | <40%
33 | CCC1(C(=O)NC(C)C2CCC2)C(C)C1(Cl)Cl (stereo not given) | <40% | <40%
34 | CCC1(C(=O)NC(C)C2CCCC2)C(C)C1(Cl)Cl (stereo not given) | <40% | 40%
35 | CCC1(C(=O)NC(C)C2CCCCC2)C(C)C1(Cl)Cl (stereo not given) | <40% | <40%
36 | CCC1(C(=O)NC(C)C2CCCCCC2)C(C)C1(Cl)Cl (stereo not given) | <40% | <40%
37 | CCC1(C(=O)Nc2ccc(Cl)cc2)C(C)C1(Cl)Cl (stereo not given) | <40% | <40%
38 | CCC1(C(=O)NCc2ccc(Cl)cc2)C(C)C1(Cl)Cl (stereo not given) | <=40% | 40%
39 | CCC1(C(=O)NCCc2ccc(Cl)cc2)C(C)C1(Cl)Cl (stereo not given) | 40% | 40%
40 | CCC1(C(=O)NCCCc2ccc(Cl)cc2)C(C)C1(Cl)Cl (stereo not given) | 40% | 40%
41 | CCC(NC(=O)C1(CC)C(C)C1(Cl)Cl)c1ccc(Cl)cc1 (stereo not given) | <=40% | <40%
42 | CCC1(C(=O)NCC(C)c2ccc(Cl)cc2)C(C)C1(Cl)Cl (stereo not given) | 40% | 40%
43 | CCC1(C(=O)NC(C)Cc2ccc(Cl)cc2)C(C)C1(Cl)Cl (stereo not given) | <40% | <40%
44 | CCC1(C(=O)NCCc2ccc(F)cc2)C(C)C1(Cl)Cl (stereo not given) | 40% | 40%
45 | CC[C@@]1(C(=O)N[C@H](C)c2ccc(Cl)cc2)[C@@H](C)C1(Cl)Cl (mixture of isomers) [CARPROPAMIDE] | >90% | >90%
